Experiments:
Type in all cases: functional
NCI-H226 = experiment: Antiproliferative activity against human NCI-H226 cells assessed as inhibition of cell growth at 10 uM measured after 48 hrs by SRB assay relative to control; settings: NCI-H226, 48 h, read-out: GI
SF-295 = experiment: Antiproliferative activity against human SF295 cells assessed as inhibition of cell growth measured after 48 hrs by SRB assay; settings: SF-295, 48 h
T47D = experiment: Antiproliferative activity against human T47D cells assessed as inhibition of cell growth measured after 48 hrs by SRB assay
KM12 = experiment: Antiproliferative activity against human KM12 cells assessed as inhibition of cell growth measured after 48 hrs by SRB assay; settings: KM12, 48 h
HL-60(TB) [1] = experiment: Antiproliferative activity against human HL-60(TB) cells assessed as inhibition of cell growth at 10 uM measured after 48 hrs by SRB assay relative to control; settings: HL-60, 48 h, read-out: GI
SR = experiment: Antiproliferative activity against human SR cells assessed as inhibition of cell growth measured after 48 hrs by SRB assay
CAKI-1 = experiment: Antiproliferative activity against human CAKI-1 cells assessed as inhibition of cell growth at 10 uM measured after 48 hrs by SRB assay relative to control; settings: CAKI-1, 48 h, read-out: GI
MDA-MB-468 = experiment: Antiproliferative activity against human MDA-MB-468 cells assessed as inhibition of cell growth at 10 uM measured after 48 hrs by SRB assay relative to control; settings: MDA-MB-468, 48 h, read-out: GI
HL-60(TB) [2] = experiment: Antiproliferative activity against human HL-60(TB) cells assessed as inhibition of cell growth measured after 48 hrs by SRB assay; settings: HL-60, 48 h
HCC 2998 [3] = experiment: Antiproliferative activity against human HCC2998 cells assessed as inhibition of cell growth at 10 uM measured after 48 hrs by SRB assay relative to control; settings: HCC 2998, 48 h, read-out: GI
A498 = experiment: Antiproliferative activity against human A498 cells assessed as inhibition of cell growth measured after 48 hrs by SRB assay; settings: A498, 48 h
SK-MEL-5 = experiment: Antiproliferative activity against human SK-MEL-5 cells assessed as inhibition of cell growth at 10 uM measured after 48 hrs by SRB assay relative to control; settings: SK-MEL-5, 48 h, read-out: GI
MDA-MB-231 [4] = experiment: Antiproliferative activity against human MDA-MB-231 cells assessed as inhibition of cell growth measured after 48 hrs by SRB assay; settings: MDA-MB-231, 48 h
A549 = experiment: Antiproliferative activity against human A549 cells assessed as inhibition of cell growth measured after 48 hrs by SRB assay; settings: A549, 48 h
SNB-75 = experiment: Antiproliferative activity against human SNB75 cells assessed as inhibition of cell growth measured after 48 hrs by SRB assay; settings: SNB-75, 48 h
HCT-15 = experiment: Antiproliferative activity against human HCT15 cells assessed as inhibition of cell growth measured after 48 hrs by SRB assay; settings: HCT-15, 48 h
SN12C = experiment: Antiproliferative activity against human SN12C cells assessed as inhibition of cell growth measured after 48 hrs by SRB assay
HCT-116 [5] = experiment: Antiproliferative activity against human HCT116 cells assessed as inhibition of cell growth measured after 48 hrs by SRB assay; settings: HCT-116, 48 h
SNB-19 = experiment: Antiproliferative activity against human SNB19 cells assessed as inhibition of cell growth at 10 uM measured after 48 hrs by SRB assay relative to control; settings: SNB-19, 48 h, read-out: GI
ACHN = experiment: Antiproliferative activity against human ACHN cells assessed as inhibition of cell growth measured after 48 hrs by SRB assay
DU-145 = experiment: Antiproliferative activity against human DU145 cells assessed as inhibition of cell growth measured after 48 hrs by SRB assay; settings: DU-145, 48 h
COLO 205 = experiment: Antiproliferative activity against human COLO205 cells assessed as inhibition of cell growth measured after 48 hrs by SRB assay; settings: COLO 205, 48 h
SK-MEL-2 = experiment: Antiproliferative activity against human SK-MEL-2 cells assessed as inhibition of cell growth measured after 48 hrs by SRB assay; settings: SK-MEL-2, 48 h
SF-539 = experiment: Antiproliferative activity against human SF539 cells assessed as inhibition of cell growth at 10 uM measured after 48 hrs by SRB assay relative to control; settings: SF-539, 48 h, read-out: GI
Hs-578T = experiment: Antiproliferative activity against human Hs 578T cells assessed as inhibition of cell growth measured after 48 hrs by SRB assay
BT-549 = experiment: Antiproliferative activity against human BT549 cells assessed as inhibition of cell growth at 10 uM measured after 48 hrs by SRB assay relative to control; settings: BT-549, 48 h, read-out: GI
RXF 393 = experiment: Antiproliferative activity against human RXF393 cells assessed as inhibition of cell growth measured after 48 hrs by SRB assay; settings: RXF 393, 48 h
UO-31 = experiment: Antiproliferative activity against human UO31 cells assessed as inhibition of cell growth measured after 48 hrs by SRB assay; settings: UO-31, 48 h
MDA-MB-231 [6] = experiment: Antiproliferative activity against human MDA-MB-231 cells assessed as inhibition of cell growth at 10 uM measured after 48 hrs by SRB assay relative to control; settings: MDA-MB-231, 48 h, read-out: GI
HCT-116 [7] = experiment: Antiproliferative activity against human HCT116 cells assessed as inhibition of cell growth at 10 uM measured after 48 hrs by SRB assay relative to control; settings: HCT-116, 48 h, read-out: GI
HT-29 = experiment: Antiproliferative activity against human HT-29 cells assessed as inhibition of cell growth at 10 uM measured after 48 hrs by SRB assay relative to control; settings: HT-29, 48 h, read-out: GI
MDA-MB-435 = experiment: Antiproliferative activity against human MDA-MB-435 cells assessed as inhibition of cell growth at 10 uM measured after 48 hrs by SRB assay relative to control; settings: MDA-MB-435, 48 h, read-out: GI
U-251 = experiment: Antiproliferative activity against human U251 cells assessed as inhibition of cell growth at 10 uM measured after 48 hrs by SRB assay relative to control; settings: U-251, 48 h, read-out: GI
IGROV-1 = experiment: Antiproliferative activity against human IGROV1 cells assessed as inhibition of cell growth measured after 48 hrs by SRB assay; settings: IGROV-1, 48 h
SK-MEL-28 = experiment: Antiproliferative activity against human SK-MEL-28 cells assessed as inhibition of cell growth measured after 48 hrs by SRB assay; settings: SK-MEL-28, 48 h
HCC 2998 [8] = experiment: Antiproliferative activity against human HCC2998 cells assessed as inhibition of cell growth measured after 48 hrs by SRB assay; settings: HCC 2998, 48 h

SMILES	inhibition of growth at 10 µM (NCI-H226) [%]	GI50 (SF-295) [nM]	GI50 (KM12) [nM]	inhibition of growth at 10 µM (HL-60(TB) [1]) [%]	GI50 (SR) [nM]	inhibition of growth at 10 µM (CAKI-1) [%]	inhibition of growth at 10 µM (MDA-MB-468) [%]	GI50 (HL-60(TB) [2]) [nM]	inhibition of growth at 10 µM (HCC 2998 [3]) [%]	GI50 (A498) [nM]	inhibition of growth at 10 µM (SK-MEL-5) [%]	GI50 (MDA-MB-231 [4]) [nM]	GI50 (A549) [nM]	GI50 (SNB-75) [nM]	GI50 (HCT-15) [nM]	GI50 (SN12C) [nM]	GI50 (HCT-116 [5]) [nM]	inhibition of growth at 10 µM (SNB-19) [%]	GI50 (ACHN) [nM]	GI50 (DU-145) [nM]	other results
COc1ccc2nc3c(cc2c1)C(=O)CC(c1ccccc1)C3 (centres undefined)	73.5	634	450	102	322	68.7	31.7	274	8.74	346	69.8	3420	2070	572	2680	639	432	65.7	756	593	GI50 (T47D): 3650 nM; GI50 (COLO 205): 608 nM; GI50 (SK-MEL-2): 777 nM; inhibition of growth at 10 µM (SF-539): 92.1%; GI50 (Hs-578T): 1000 nM; inhibition of growth at 10 µM (BT-549): 48.3%; GI50 (RXF 393): 440 nM; GI50 (UO-31): 543 nM; inhibition of growth at 10 µM (MDA-MB-231 [6]): 45.4%; inhibition of growth at 10 µM (HCT-116 [7]): 88.9%; inhibition of growth at 10 µM (HT-29): 90%; inhibition of growth at 10 µM (MDA-MB-435): 168%; inhibition of growth at 10 µM (U-251): 55%; GI50 (IGROV-1): 2310 nM
COc1ccc2nc3c(cc2c1)C(=O)CC(C(F)(F)F)C3 (centres undefined)	60.2	853	316	115	217	63	64.4	325	16	355	68.6	3980	3030	2160	1370	823	133	49.7	768	849	GI50 (T47D): 3290 nM; GI50 (COLO 205): 1160 nM; GI50 (SK-MEL-2): 802 nM; inhibition of growth at 10 µM (SF-539): 77.4%; GI50 (Hs-578T): 3350 nM; inhibition of growth at 10 µM (BT-549): 39.1%; GI50 (RXF 393): 562 nM; GI50 (UO-31): 2000 nM; inhibition of growth at 10 µM (MDA-MB-231 [6]): 40%; inhibition of growth at 10 µM (HCT-116 [7]): 88.1%; inhibition of growth at 10 µM (HT-29): 89.1%; inhibition of growth at 10 µM (MDA-MB-435): 148%; inhibition of growth at 10 µM (U-251): 15.3%; GI50 (IGROV-1): 769 nM
O=C1CC(c2ccccc2)Cc2nc3c(Br)cc(Br)cc3cc21 (centres undefined)	85.9	196	242	95.4	91.3	98.8	116	226	93.5	140	118	402	79.2	199	312	661	47.8	65.2	595	82.6	GI50 (SK-MEL-28): 478 nM; GI50 (T47D): 851 nM; GI50 (COLO 205): 152 nM; GI50 (SK-MEL-2): 49.2 nM; inhibition of growth at 10 µM (SF-539): 93.1%; GI50 (Hs-578T): 191 nM; GI50 (HCC 2998 [8]): 282 nM; inhibition of growth at 10 µM (BT-549): 94.7%; GI50 (RXF 393): 91.6 nM; GI50 (UO-31): 79.5 nM; inhibition of growth at 10 µM (MDA-MB-231 [6]): 84.9%; inhibition of growth at 10 µM (HCT-116 [7]): 93.8%; inhibition of growth at 10 µM (HT-29): 91.7%; inhibition of growth at 10 µM (MDA-MB-435): 124%; inhibition of growth at 10 µM (U-251): 91.4%; GI50 (IGROV-1): 125 nM
O=C1CC(c2ccccc2)Cc2nc3ccc(Br)cc3cc21 (centres undefined)	75.9	206	341	128	56.7	69.3	99.7	214	73	74.5	97.9	598	419	210	528	526	51.5	72.6	583	274	GI50 (SK-MEL-28): 954 nM; GI50 (COLO 205): 261 nM; GI50 (SK-MEL-2): 238 nM; inhibition of growth at 10 µM (SF-539): 98.4%; GI50 (Hs-578T): 411 nM; GI50 (HCC 2998 [8]): 2580 nM; inhibition of growth at 10 µM (BT-549): 93.5%; GI50 (RXF 393): 208 nM; GI50 (UO-31): 640 nM; inhibition of growth at 10 µM (MDA-MB-231 [6]): 86.8%; inhibition of growth at 10 µM (HCT-116 [7]): 94.4%; inhibition of growth at 10 µM (HT-29): 97.8%; inhibition of growth at 10 µM (MDA-MB-435): 140%; inhibition of growth at 10 µM (U-251): 81.9%; GI50 (IGROV-1): 423 nM
O=C1CC(c2ccccc2)Cc2nc3ccc(Cl)cc3cc21 (centres undefined)	79.2	196	349	121	53.2	70.8	89.8	211	94.7	87	114	617	420	215	588	533	46.8	75	508	334	GI50 (SK-MEL-28): 1690 nM; GI50 (COLO 205): 346 nM; GI50 (SK-MEL-2): 320 nM; inhibition of growth at 10 µM (SF-539): 112%; GI50 (Hs-578T): 306 nM; GI50 (HCC 2998 [8]): 2890 nM; inhibition of growth at 10 µM (BT-549): 95.4%; GI50 (RXF 393): 195 nM; GI50 (UO-31): 489 nM; inhibition of growth at 10 µM (MDA-MB-231 [6]): 80.5%; inhibition of growth at 10 µM (HCT-116 [7]): 94.5%; inhibition of growth at 10 µM (HT-29): 95.6%; inhibition of growth at 10 µM (MDA-MB-435): 139%; inhibition of growth at 10 µM (U-251): 81.2%; GI50 (IGROV-1): 375 nM

From ChEMBL document CHEMBL4627344, “Synthesis, biological evaluation and virtual screening of some acridone derivatives as potential anticancer agents” (2020)
